Values quoted from earlier work, collected in patent publication US6376550B1, “Pharmaceutical compositions containing tramadol for migraine” (ASTA Medica AG, priority 1999, dated 2002).

Settings: in vivo

In the case of COc1cccc(C2(O)CCCCC2CN(C)C)c1 (stereo not shown) [tramadol, 2-[(dimethylamino)methyl]-1-(3-methoxyphenyl)cyclohexanol], the “terminal elimination half life” value is given as 5 to 6 h.
